Measurements reported in the NIST ThermoML archive (doi:10.1021/je060219e).
“And” between values parts separate entries of the source, which are not always exact repeats. Equal values may be shown once.

Experiment: φn = volume fraction of the nth substance listed
Settings: 101 kPa, Liquid

CCO [ethanol] + O
viscosity
Settings	303.15 K	308.15 K	313.15 K	318.15 K	323.15 K
φ1 = 0.1	0.6791 mPa·s	0.6191 mPa·s	0.5909 mPa·s	0.5763 mPa·s	0.5305 mPa·s
φ1 = 0.2	0.9735 mPa·s	0.871 mPa·s	0.7442 mPa·s	0.6476 mPa·s	0.598 mPa·s
φ1 = 0.3	1.186 mPa·s	0.8816 mPa·s	0.8614 mPa·s	0.797 mPa·s and 0.79 mPa·s	0.698 mPa·s
φ1 = 0.4	1.254 mPa·s	1.147 mPa·s	0.9262 mPa·s	0.8844 mPa·s	0.7081 mPa·s
φ1 = 0.5	1.426 mPa·s	1.216 mPa·s	1.14 mPa·s	0.8776 mPa·s	0.825 mPa·s
